Among the data in ChEMBL document CHEMBL2331298, “Flavonoids as receptor tyrosine kinase FLT3 inhibitors” (Bioorg Med Chem Lett, 2013) are IC50, GI50 and Activity values, retold here.

Molecules are shown by their SMILES. Bounds are passed on as bounds.

Test [1] addresses T1, Receptor-type tyrosine-protein kinase FLT3 (Homo sapiens, UniProt P36888).
T1 sequence (P36888 whole entry): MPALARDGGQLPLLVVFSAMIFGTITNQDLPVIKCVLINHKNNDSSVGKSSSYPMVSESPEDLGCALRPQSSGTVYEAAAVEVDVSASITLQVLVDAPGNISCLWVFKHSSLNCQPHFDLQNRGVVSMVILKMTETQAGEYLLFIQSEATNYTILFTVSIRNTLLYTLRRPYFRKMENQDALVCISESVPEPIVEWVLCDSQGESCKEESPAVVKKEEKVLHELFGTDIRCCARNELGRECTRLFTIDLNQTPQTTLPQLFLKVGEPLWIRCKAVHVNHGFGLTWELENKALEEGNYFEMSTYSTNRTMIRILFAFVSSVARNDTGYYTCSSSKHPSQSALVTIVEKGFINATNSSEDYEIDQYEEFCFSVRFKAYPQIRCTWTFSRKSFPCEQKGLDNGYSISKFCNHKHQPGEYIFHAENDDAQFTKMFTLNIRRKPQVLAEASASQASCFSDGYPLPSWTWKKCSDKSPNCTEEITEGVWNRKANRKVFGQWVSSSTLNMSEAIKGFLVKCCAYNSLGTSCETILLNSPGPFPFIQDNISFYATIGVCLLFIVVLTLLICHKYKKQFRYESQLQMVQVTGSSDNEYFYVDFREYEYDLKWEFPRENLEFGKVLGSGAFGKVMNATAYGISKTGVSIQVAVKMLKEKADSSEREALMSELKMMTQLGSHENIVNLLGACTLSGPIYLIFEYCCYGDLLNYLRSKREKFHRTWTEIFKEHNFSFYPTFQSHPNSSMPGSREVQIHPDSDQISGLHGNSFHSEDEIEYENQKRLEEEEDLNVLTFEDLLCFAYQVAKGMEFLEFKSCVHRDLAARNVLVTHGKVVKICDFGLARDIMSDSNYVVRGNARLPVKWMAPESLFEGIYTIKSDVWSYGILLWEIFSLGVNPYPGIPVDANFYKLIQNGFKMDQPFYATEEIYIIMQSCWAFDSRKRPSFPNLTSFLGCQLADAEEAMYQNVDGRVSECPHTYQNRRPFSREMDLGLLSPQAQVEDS
Description: Inhibition of recombinant FLT3 (unknown origin) by TR-FRET assay. In general terms: TR-FRET usually uses a lanthanide donor and a delayed reading to cut background.

The test system of test [2] is MV4-11. Description: Cytotoxicity against human MV4-11 cells harboring FLT3 mutation after 72 hrs by tetrazolium based Ez CyTox cell viability assay. The class given is functional. The following applies: MV4-11, 72 h.
The nature of test [3]: Cytotoxicity against human RS4:11 cells harboring wild type FLT3 after 72 hrs by tetrazolium based Ez CyTox cell viability assay. The class given is functional. The following applies: RS4-11, 72 h.
Test [4] concerns MV4-11. Description: Cell cycle arrest in human MV4-11 cells harboring FLT3 mutation assessed as accumulation at sub-G1 phase at 1 uM after 48 hrs using propidium iodide staining by flow cytometry (reference value: 3.86%). The class given is functional. For orientation: A flow cytometer gives signals particle by particle.
Test [5] concerns MV4-11. In words: Cell cycle arrest in human MV4-11 cells harboring FLT3 mutation assessed as accumulation at G1 phase at 10 uM after 48 hrs using propidium iodide staining by flow cytometry (reference value: 69.69%). The class given is functional.
Test [6] relates to MV4-11. In words: Cell cycle arrest in human MV4-11 cells harboring FLT3 mutation assessed as accumulation at G1 phase at 0.1 uM after 48 hrs using propidium iodide staining by flow cytometry (reference value: 69.69%). The class given is functional.
The subject of test [7] is MV4-11. Description: Cell cycle arrest in human MV4-11 cells harboring FLT3 mutation assessed as accumulation at S phase at 10 uM after 48 hrs using propidium iodide staining by flow cytometry (reference value: 15.48%). Format: functional.
Test [8] concerns MV4-11. In words: Cell cycle arrest in human MV4-11 cells harboring FLT3 mutation assessed as accumulation at sub-G1 phase at 10 uM after 48 hrs using propidium iodide staining by flow cytometry (reference value: 3.86%). Format: functional.
Test [9] relates to MV4-11. In words: Cell cycle arrest in human MV4-11 cells harboring FLT3 mutation assessed as accumulation at S phase at 1 uM after 48 hrs using propidium iodide staining by flow cytometry (reference value: 15.48%). The class given is functional.
The test system of test [10] is MV4-11. Description: Cell cycle arrest in human MV4-11 cells harboring FLT3 mutation assessed as accumulation at G2/M phase at 10 uM after 48 hrs using propidium iodide staining by flow cytometry (reference value: 11.61%). The class given is functional.
For test [11], the system named is MV4-11. In words: Cell cycle arrest in human MV4-11 cells harboring FLT3 mutation assessed as accumulation at G2/M phase at 0.1 uM after 48 hrs using propidium iodide staining by flow cytometry (reference value: 11.61%). The class given is functional.
Test [12] relates to MV4-11. Description: Cell cycle arrest in human MV4-11 cells harboring FLT3 mutation assessed as accumulation at S phase at 0.1 uM after 48 hrs using propidium iodide staining by flow cytometry (reference value: 15.48%). Format: functional.
Test [13] concerns MV4-11. In words: Cell cycle arrest in human MV4-11 cells harboring FLT3 mutation assessed as accumulation at G1 phase at 1 uM after 48 hrs using propidium iodide staining by flow cytometry (reference value: 69.69%). Format: functional.
The test system of test [14] is MV4-11. In words: Cell cycle arrest in human MV4-11 cells harboring FLT3 mutation assessed as accumulation at G2/M phase at 1 uM after 48 hrs using propidium iodide staining by flow cytometry (reference value: 11.61%). Format: functional.
In test [15] the test system is MV4-11. Description: Cell cycle arrest in human MV4-11 cells harboring FLT3 mutation assessed as accumulation at sub-G1 phase at 0.1 uM after 48 hrs using propidium iodide staining by flow cytometry (reference value: 3.86%). The class given is functional.

What is called IC50 is the concentration needed to halve the response being measured. In the case of `O=c1c(OC2O[C@H](CO)[C@H](O)[C@H](O)[C@H]2O)c(-c2ccc(O)c(O)c2)oc2cc(O)cc(O)c12` (stereo not given in full), the IC50 in [1] was over 10 µM.
The same measure, in the same setting: to `O=c1c(OC2O[C@H](CO)[C@@H](O)[C@H](O)[C@@H]2O)c(-c2ccc(O)c(O)c2)oc2cc(O)cc(O)c12` (stereo not given in full) belongs over 10 µM.
A word on the GI50: it is the concentration at which growth is held to half of that of the control. The low end stands for more potent growth inhibition, the high end for less potent growth inhibition. With `O=c1cc(-c2ccc(O)cc2)oc2cc(O)cc(O)c12` [APIGENIN], in test [1], the IC50 came to 1.45 µM. In addition, the GI50 in test [2] stood at 2.81 µM; in [3], 27.9 µM.
As for `O=c1cc(-c2ccccc2)oc2cc(O)c(O)c(O)c12` [BAICALEIN], in test [1], the IC50 is over 10 µM.
Still for that read-out and setting: next, `O=c1cc(-c2ccccc2)oc2cc(O)cc(O)c12` [CHRYSIN]: over 10 µM.
Still for that read-out and setting: next, `O=C1c2c(O)cc(O)cc2O[C@H](c2ccc(O)cc2)[C@H]1O` [DIHYDROKAEMPFEROL]: over 10 µM; `O=C1C[C@@H](c2ccc(O)c(O)c2)Oc2cc(O)cc(O)c21` [ERIODICTYOL]: over 10 µM; `O=c1c(O)c(-c2ccccc2)oc2cc(O)cc(O)c12` [GALANGIN]: over 10 µM.
As to `O=c1c(O[C@@H]2O[C@H](CO)[C@@H](O)[C@H](O)[C@H]2O)c(-c2ccc(O)c(O)c2)oc2cc(O)cc(O)c12` [ISOQUERCETIN], the half-maximal inhibitory concentration (IC50) in test [1] was over 10 µM.
Regarding `O=c1c(O)c(-c2ccc(O)cc2)oc2cc(O)cc(O)c12` [KAEMPFEROL], in test [1], the IC50 stood at 2.32 µM. Besides, the GI50 in [2] was 3.34 µM; in test [3], over 50 µM.
Consider `O=c1cc(-c2ccc(O)c(O)c2)oc2cc(O)cc(O)c12` [LUTEOLIN], for which the Activity in [4] is reported as 16.42%; in test [5], 66.68%; in [6] it was 71.25%; in test [7], 2.09%; in test [8], 30.76%; in test [9], 12.8%. Moreover, the Activity in test [10] came to 0.51%; in [11], 4.9%; in test [12], 10.5%; in [13], 67.08%; in test [14], 4.2%; in test [15] it was 13.71%. For the same compound, the IC50 in test [1] was found to be 0.83 µM. Moreover, the GI50 in [2] is 1.76 µM; in test [3], 7.25 µM.
As to `O=c1c(O)c(-c2cc(O)c(O)c(O)c2)oc2cc(O)cc(O)c12` [MYRICETIN], in test [1], the IC50 was 1.69 µM. For the same compound, the GI50 in test [2] and in test [3] was over 50 µM each time.
With `O=C1C[C@@H](c2ccc(O)cc2)Oc2cc(O)cc(O)c21` [NARINGENIN], the IC50 in [1] was over 10 µM.
As to `COc1c(O)cc2oc(-c3ccccc3)cc(=O)c2c1O` [OROXYLIN A], the IC50 in [1] turned out to be 1.48 µM. Also, the GI50 in [2] stood at 5.59 µM; in test [3] it was 40 µM.
The like results for `O=c1c(O)c(-c2ccc(O)c(O)c2)oc2cc(O)cc(O)c12` [QUERCETIN] were, in that order, 0.59 µM, 13.1 µM and 21.6 µM.
For the compound `O=c1cc(-c2ccc(O)cc2)oc2cc(O)c(O)c(O)c12` [SCUTELLAREIN], the IC50 in test [1] is over 10 µM.
